Measured values taken from US20100273875A1, “Composition for External Application to Skin” (KAO CORPORATION, priority 2007, published 2010).

How the values were obtained:
[1] = tested on: hairless mice irradiated with UV-B; assay: Comprehensive evaluation of photoaging- and wrinkle-preventing effect, Example 1; type: in vivo
Method: (§1) Six-week-old ICR/HR female mice prepared by mating HR/HR mice with HaM/ICR mice were used as wrinkle model animals (wrinkle-formed hairless mice). The mice were allowed to take feed and water freely and raised in an ultraviolet-free environment of a temperature of 23° C. and a humidity of 55%.
(§2) The hairless mice raised as above were divided into 7 groups each having 8 mice and were irradiated with UV-B. UV-B irradiation was performed according to a known general method described in Tsukahara et al. (Br. J. Dermatol., 2004, 151, p. 984-994) or the like. Specifically, the hairless mice raised as above were placed in cages and irradiated with UV-B using Toshiba SE lamps. Irradiation was performed at an irradiance level of 40 to 50 mJ/cm^2, which corresponds to 0.8 to 1 MED (minimal erythema dose) for general 6-week-old hairless mice, over 12 weeks five times a week.
(§3) Samples to be applied to the hairless mice were prepared as 1% Exemplified Compound (1)/90% ethanol (EtOH) solution, 3% Exemplified Compound (1)/90% EtOH solution, 1% Exemplified Compound (2)/90% EtOH solution, 1% Exemplified Compound (3)/90% EtOH solution, 0.1% Exemplified Compound (4)/90% EtOH solution, and 1% Exemplified Compound (5)/90% EtOH solution.
(§4) Immediately after the ultraviolet ray irradiation, 90% EtOH (control) and the samples prepared as above were applied to the hairless mice of the respective groups over 12 weeks with five times a week at a dose of 100 μL/day. The groups of the hairless mice applied with the samples include “90% EtOH control group” consisting of the mice applied with 90% EtOH, “1%-compound 1 group” consisting of the mice applied with 1% Exemplified Compound (1)/90% EtOH solution, “3%-compound 1 group” consisting of the mice applied with 3% Exemplified Compound (1)/90% EtOH solution, “1%-compound 2 group” consisting of the mice applied with 1% Exemplified Compound (2)/90% EtOH solution, “1%-compound 3 group” consisting of the mice applied with 1% Exemplified Compound (3)/90% EtOH solution, “0.1%-compound 4 group” consisting of the mice applied with 0.1% Exemplified Compound (4)/90% EtOH solution, and “1%-compound 5 group” consisting of the mice applied with 1% Exemplified Compound (5)/90% EtOH solution.
(§5) Five-grade evaluation for wrinkles was performed to classify wrinkles into grades 0 to 4 by reference to the method described in Bisselt et al. (Photochem. Photobiol., 1989, 50, p. 763-769) by a known method described in Tsukahara et al. (Br. J. Dermatol., 2004, 151, p. 984-994) or the like.
(§6) The collected replicas were cut out into pieces with a diameter of 1.8 cm, and the pieces were lined with the impression material to correct the pieces and subjected to an image analysis. The image analysis was performed using PIAS LA-555 (PIAS Corporation) by irradiating each piece with light from a direction of oblique 30 degrees to quantify shadows formed in an area of 10 mm×10 mm (image analysis area ratio (%)).
(§7) Measurement of skin elasticity was performed by a known method described in Tsukahara K et al. (Br. J. Dermatol., 2004, 151, p. 984-994) using Cutometer SEM575 (C+K Corporation) to measure a displacement formed in 2 seconds in total with a 1-second suction of 100 mb, followed by a 1-second relaxation period. Measurement was performed five times for each mouse to determine Ue, which is a parameter of an instantaneous elasticity displacement. The Ue value of the 90% EtOH control group was defined as 100, and Ue values of the respective groups were determined.

[2] = tested on: hairless mice irradiated with UV-B; assay: Replica image analysis (image analysis area ratio), Example 1; type: in vivo; conditions: 100 μL/day after UV-B, five times a week over 12 weeks
Method: as §1, §2, §3, §4
Replica collection and image analysis were performed as described below. A replica was collected from the skin of the back of each hairless mouse using a rubber-based silicon impression material (GC Corporation) by a known method described in Tsukahara K et al. (Br. J. Dermatol., 2004, 151, p. 984-994) or the like.
as §6
The image analysis area ratio of the 90% EtOH control group was defined as 100, and the image analysis area ratios (%) of the respective groups were evaluated based on the image analysis area ratios obtained by the quantification.

[3] = tested on: hairless mice irradiated with UV-B; assay: Evaluation of wrinkle-preventing effect (visual evaluation of wrinkles), Example 1; type: in vivo; conditions: 100 μL/day after UV-B, five times a week over 12 weeks
Method: as §1, §2, §3, §4, §5
The score of the 90% EtOH control group was defined as 100, and wrinkle scores of the respective groups were evaluated based on the five-grade evaluation.

[4] = tested on: hairless mice irradiated with UV-B; assay: Measurement of skin elasticity (Ue, Cutometer), Example 1; type: in vivo; conditions: 100 μL/day after UV-B, five times a week over 12 weeks
Method: as §1, §2, §3, §4, §7

[5] = tested on: wrinkle-formed hairless mice; assay: Evaluation of wrinkle-improving effect (visual evaluation of wrinkles), Example 2; type: in vivo; conditions: 1% in 90% EtOH, five times a week over 6 weeks, after 10 weeks of UV-B; versus 90% EtOH control group
Method: Wrinkle-formed hairless mice were prepared according to the description in the sections (1) and (2)(ii) of the above Example 1 by irradiating 6-week-old ICR/HR female mice, prepared by mating HR/HR with HaM/ICR, with UV-B over 10 weeks five times a week.
The hairless mice having wrinkles formed by irradiation with UV-B were visually evaluated with reference to the method described in Bisselt et al. (Photochem. Photobiol., 1989, 50, p. 763-769) by a known method described in Tsukahara et al. (Br. J. Dermatol., 2004, 151, p. 984-994) to divide the mice into two groups each having eight mice so that the average values of wrinkle scores (evaluated according to the description in the section 2)[…])) of the respective groups were almost the same.
A sample to be applied to the wrinkle-formed hairless mice was prepared as 1% compound (1)/90% EtOH solution.
The 90% EtOH (control) and the sample prepared as above were applied to the wrinkle-formed hairless mice of the respective groups over 6 weeks with five times a week at a dose of […]. The groups of the wrinkle-formed hairless mice applied with the samples include “90% EtOH control group” consisting of the mice applied with 90% EtOH, and “1%-compound 1 group” consisting of the mice applied with 1% Exemplified Compound (1)/90% EtOH solution. […]

[6] = David Malka et al., Journal of Hepathology, 1997; cited from earlier work

**Q.** With CCCCCCCCCCCC(=O)NCCN(C)C [compound 5, (2-dimethylaminoethyl)-amide dodecanoate] as the molecule, how does the “photoaging-preventing and wrinkle-preventing effects (comprehensive evaluation)” value ([1]; 1% in 90% EtOH) read?
**A.** high

**Q.** What about the “wrinkle formation inhibiting effect (replica image analysis)” value ([2]; 1% in 90% EtOH) of the same molecule?
**A.** maximum effect of inhibiting wrinkle formation

**Q.** What about the “wrinkle formation inhibiting effect (wrinkle score, visual evaluation)” value ([3]; 1% in 90% EtOH) of the same molecule?
**A.** maximum effect of inhibiting wrinkle formation

**Q.** What about the “effect of inhibiting the decrease in skin elasticity (Ue)” value (“effect of inhibiting the decrease” below) ([4]; 1% in 90% EtOH) of the same molecule?
**A.** maximum effect of inhibiting the decrease in skin elasticity

**Q.** Which “photoaging-preventing and wrinkle-preventing effects (comprehensive evaluation)” value ([1]; 1% in 90% EtOH) does the source give for CCCCCCCCCCCC(=O)OCCN(C)C [compound 1, 2-dimethylamino-ethyl dodecanoate] here?
**A.** high

**Q.** What about the “photoaging-preventing and wrinkle-preventing effects (comprehensive evaluation)” value ([1]; 3% in 90% EtOH) of the same molecule?
**A.** high

**Q.** And the “wrinkle formation inhibiting effect (replica image analysis)” value ([2]; 1% in 90% EtOH)?
**A.** decrease in this order

**Q.** And the “wrinkle formation inhibiting effect (replica image analysis)” value ([2]; 3% in 90% EtOH)?
**A.** decrease in this order

**Q.** And the “wrinkle formation inhibiting effect (wrinkle score, visual evaluation)” value ([3]; 1% in 90% EtOH)?
**A.** decrease in this order

**Q.** And the “wrinkle formation inhibiting effect (wrinkle score, visual evaluation)” value ([3]; 3% in 90% EtOH)?
**A.** decrease in this order

**Q.** What about the “wrinkle score (wrinkle-improving effect, visual evaluation)” value [5] of the same molecule?
**A.** lower than that of the 90% EtOH control group

**Q.** What about the “effect of inhibiting the decrease” value ([4]; 1% in 90% EtOH) of the same molecule?
**A.** decrease in this order

**Q.** And the “effect of inhibiting the decrease” value ([4]; 3% in 90% EtOH)?
**A.** decrease in this order

**Q.** For CCCCCCCCCCCCOC(=O)CN(C)C [compound 3, Dodecyl dimethylamino acetate], which “photoaging-preventing and wrinkle-preventing effects (comprehensive evaluation)” value ([1]; 1% in 90% EtOH) is on record?
**A.** high

**Q.** What about the “wrinkle formation inhibiting effect (replica image analysis)” value ([2]; 1% in 90% EtOH) of the same molecule?
**A.** decrease in this order

**Q.** What about the “wrinkle formation inhibiting effect (wrinkle score, visual evaluation)” value ([3]; 1% in 90% EtOH) of the same molecule?
**A.** decrease in this order

**Q.** And the “effect of inhibiting the decrease” value ([4]; 1% in 90% EtOH)?
**A.** decrease in this order

**Q.** For CCCCCCCCCCCCNC(=O)CN(C)C [compound 2, 2-Dimethylamino-N-dodecyl-acetamide], which “photoaging-preventing and wrinkle-preventing effects (comprehensive evaluation)” value ([1]; 1% in 90% EtOH) is on record?
**A.** high

**Q.** And the “wrinkle formation inhibiting effect (replica image analysis)” value ([2]; 1% in 90% EtOH)?
**A.** decrease in this order

**Q.** What about the “wrinkle formation inhibiting effect (wrinkle score, visual evaluation)” value ([3]; 1% in 90% EtOH) of the same molecule?
**A.** decrease in this order

**Q.** What about the “effect of inhibiting the decrease” value ([4]; 1% in 90% EtOH) of the same molecule?
**A.** decrease in this order

**Q.** For CCN(CCCc1ccccc1)CCCc1ccccc1 [alverine], which toxicity [6] is on record?
**A.** high toxicity

**Q.** With CCCCCCCCCCCCOCCN(C)C [compound 4, (2-dodecyloxy-ethyl)-dimethylamine] as the molecule, how does the “photoaging-preventing and wrinkle-preventing effects (comprehensive evaluation)” value ([1]; 0.1% in 90% EtOH) read?
**A.** high

**Q.** What about the “wrinkle formation inhibiting effect (replica image analysis)” value ([2]; 0.1% in 90% EtOH) of the same molecule?
**A.** decrease in this order

**Q.** And the “wrinkle formation inhibiting effect (wrinkle score, visual evaluation)” value ([3]; 0.1% in 90% EtOH)?
**A.** decrease in this order

**Q.** And the “effect of inhibiting the decrease” value ([4]; 0.1% in 90% EtOH)?
**A.** decrease in this order
